Experimental findings from patent US9512167B2, “Optimized synthesis of pure, non-polymorphic, crystalline bile acids with defined particle size” (Dr. Falk Pharma GmbH, priority 2010, dated 2016) are described below.

In brackets after ≈: the same amount, converted by molar mass.

What all share (type): physicochemical
The nature of series [1]: Polymorph screen: relative stability of forms by XRPD re-analysis after storage. The conditions noted are these: for Stability by XRPD (form found on XRPD re-analysis after storage): storage at ambient conditions. The protocol: (§1) The polymorph screening study was carried out in two phases. In Phase 1, the synthesized Nor-UDCA, designated Form A, was characterised by XRPD, digital imaging, thermal analysis (DSC and TGMS). The purity of the material was checked by HPLC/RI. A qualitative solubility determination with 20 solvents was carried out in order to fit the data for the selection of the crystallization solvents to be employed in the polymorph screen. Additionally, the solids recovered by evaporation of solutions used in the solubility experiments were analyzed by XRPD and digital imaging to obtain information on the potential form formation of new forms of Nor-UDCA (see Table 2). Grinding tests were conducted in order to support the definition of the experimental space for this crystallization mode. Amorphous material to be used as starting material was intentionally produced by freeze-drying from 1,4-dioxane/water (95/5%) solution and by grinding (ball-milling) for “cooling/evaporation and vapour diffusion into solids experiments”. In Phase 2, 217 experiments divided across different crystallization modes were performed. The applied crystallization modes were: • Combined cooling/evaporative crystallization experiments starting with amorphous material • Crystallization with forward anti-solvent addition • Slurry experiments at two temperatures • Vapour diffusion into solutions • Vapour diffusion onto amorphous solids • Crystallization by grinding with 24 solvents and one dry.
Upon completion of the experiments, XRPD and digital images analyses were performed on all crystallized solids.

Series [2] is described as follows: Particle size analysis of crystals by microscopy (Reference Example). The protocol:
Various properties of Nor-UDCA synthesized according to Schteingart and Hofmann (1988) Journal of Lipid Research Vol. 29(10), […] were investigated.
The particle size of the crystals obtained was analyzed by microscopy. […] This particle size distribution is not suitable for the intended pharmaceutical preparation. Milling/micronization is not desired as this would result in a reduction of the polymorphic purity and/or of the thermodynamic stability of the Nor-UDCA.

Series [3] can be described thus: Particle size determination by laser diffraction. The conditions noted are these: dry method, Malvern. The source says: The particle size distribution can be determined as described herein in Example 3 and/or according the European Pharmacopeia (Ph. Eur.), edition 6.8. section 2.9.31, preferably with a Mastersizer 2000 by Malvern instruments. The evaluation is typically carried out by the Fraunhofer model.
The precipitation of the free acid leads to Nor-UDCA particles of a consistent and defined size distribution. Micronization by milling in order to control the crystal size of Nor-UDCA can be avoided.

Series [4] in a line: Qualitative solubility determination of Nor-UDCA with 20 solvents. Particulars: thermodynamic from solid. How it is done:
as §1

As for `C[C@H](CC(=O)O)[C@H]1CC[C@H]2[C@@H]3[C@@H](O)C[C@@H]4C[C@H](O)CC[C@]4(C)[C@H]3CC[C@]12C` [Form C2], the “Stability by XRPD (form found on XRPD re-analysis after storage)” value in series [1] is on record as “Form A”.

On to `C[C@H](CC(=O)O)[C@H]1CC[C@H]2[C@@H]3[C@@H](O)C[C@@H]4C[C@H](O)CC[C@]4(C)[C@H]3CC[C@]12C`, for which, in series [2], the “Median particle size (50% of the crystals this size or less)” value stood at 13.37 μm, the “Particle size that 60% of the crystals have or less” value is 15.64 μm, the “Particle size that 95% of the particles have or less” value amounted to 46.64 μm and the “Share of particles with a particle size of 10 μm or less” value is given as “Less than 30%”.

As for `C[C@H](CC(=O)O)[C@H]1CC[C@H]2[C@@H]3[C@@H](O)C[C@@H]4C[C@H](O)CC[C@]4(C)[C@H]3CC[C@]12C` [Form B], in series [1] (stored at ambient conditions in well and experimental vial), the “Time to conversion to Form A (XRPD re-analysis)” value is given as at most 10 days.

What is called solubility is the concentration that dissolves in the medium under given conditions. In the case of `CC(CC(=O)O)[C@H]1CCC2[C@H]3C(CC[C@@]21C)[C@@]1(C)CCC(O)C[C@H]1C[C@@H]3O` (stereo partly drawn) [Nor-UDCA, 3α,7β-dihydroxy-24-nor-5β-cholan-23oic acid], the “Particle size D(v, 0.5)” value was found to be 6.4 μm in series [3] (listed as Batch 40019721), 5.4 μm in series [3] (listed as Batch 40019898) and 6.7 μm in series [3] (listed as Batch 40019902). For the same compound, the solubility in series [4] (dichloromethane, organic solvent or mixture, solvent Dichlormethane) is under 13 mg/mL; in series [4] (organic solvent or mixture, solvent 1,2-Dimethoxyethane) it was under 14 mg/mL; in series [4] (organic solvent or mixture, solvent 1,2-Ethanediol), under 14 mg/mL; in series [4] (organic solvent or mixture, solvent 1,4-Dioxane), 21 mg/mL (≈ 55.5 mM); in series [4] (organic solvent or mixture, solvent 2,2,2-Trifluoroethanol), 21 mg/mL (≈ 55.5 mM); in series [4] (organic solvent or mixture, solvent 2-Butanone), under 14 mg/mL. The solubility in series [4] (organic solvent or mixture, solvent Acetone) is under 14 mg/mL; in series [4] (organic solvent or mixture, solvent Acetonitrile), under 13 mg/mL; in series [4] (organic solvent or mixture, solvent Chloroform), under 14 mg/mL; in series [4] (organic solvent or mixture, solvent Cyclohexane) it was under 14 mg/mL; in series [4] (organic solvent or mixture, solvent Dimethylsulfoxide) it was 207 mg/mL (≈ 547 mM); in series [4] (organic solvent or mixture, solvent Methanol), 70 mg/mL (≈ 185 mM). Moreover, the solubility in series [4] (organic solvent or mixture, solvent N-Methyl-2-pyrrolidone) was 404 mg/mL (≈ 1070 mM); in series [4] (organic solvent or mixture, solvent Nitrobenzene), under 13 mg/mL; in series [4] (organic solvent or mixture, solvent Nitromethane), under 13 mg/mL; in series [4] (organic solvent or mixture, solvent Pentane), under 13 mg/mL; in series [4] (organic solvent or mixture, solvent Toluene), under 12 mg/mL; in series [4] (tert-butyl methyl ether, organic solvent or mixture, solvent Tert-butylmethylether), under 13 mg/mL. Further, the solubility in series [4] (tetrahydrofuran, organic solvent or mixture, solvent Tetrhydrofurane) is 41 mg/mL (≈ 108 mM); in series [4] (solvent Water), under 12 mg/mL. Moreover, the “Thermodynamic stability of the crystalline form” value in series [1] (polymorph screening study) is given as “thermodynamically stable”. The “Stability by XRPD (form found on XRPD re-analysis after storage)” value in series [1] is reported as “Form A”.
